Test results from patent publication US20250381254A1, “Augmented Acid Alpha-Glucosidase For The Treatment Of Pompe Disease” (Amicus Therapeutics, Inc., priority 2015, published 2025).
Where two headings read alike, the source gives them in different places.

Columns and labels:
ATB200 = ATB200 (Homo sapiens, UniProt P10253, H199R/R223H/V780I); assay: Unfolding of ATB200 protein vs. temperature with and without miglustat (FIG. 1); format: physicochemical; conditions: various pH
Source text: Without being bound by theory, it is believed that miglustat acts as a pharmacological chaperone for the recombinant human acid α-glucosidase ATB200 and binds to its active site. […] However, the binding of miglustat to the active site of ATB200 also can result in inhibition of the enzymatic activity of ATB200 by preventing the natural substrate, glycogen, from accessing the active site.

[1] = Model-derived miglustat/ATB200 steady state exposure (AUC) ratio; parameters: species or system mouse; conditions: 10 mg/kg miglustat co-administered with 20 mg/kg ATB200
Source text: Pharmacokinetic models (Example 8) are used to predict exposure to acid α-glucosidase and miglustat, time-matched to the values for tissue lysosomal glycogen levels in Table 5.

acid α-glucosidase = acid α-glucosidase (Homo sapiens, UniProt P10253); assay: Inhibition of acid α-glucosidase activity; format: biochemical
Experimental: Pharmacokinetic models (Example 8) were used to predict the length of time that the plasma or tissue concentrations of duvoglustat (a surrogate of miglustat) would remain above the IC50 (the concentration giving 50% of maximum inhibition of acid α-glucosidase activity) of miglustat in plasma and lysosome. Inhibition of acid α-glucosidase activity is determined by methods described previously (Flanagan J J, Rossi B, Tang K, Wu X, Mascioli K, et al. (2009) “The pharmacological chaperone 1-deoxynojirimycin increases the activity and lysosomal trafficking of multiple mutant forms of acid alpha-glucosidase.” Hum Mutat 30: 1683-1692).

Miglustat toxicokinetics = format: in vivo, cynomolgus monkey; conditions: for AUC(0-t) / Cmax / half-life / Tmax / Vd/F: cynomolgus monkey, plasma; for Vd/F: read-out: Vz/F
Experimental: Analysis of miglustat concentration was carried out using a LC-MS/MS method analogous to that described for analysis of duvoglustat concentration by Richie Khanna, Allan C. Powe Jr., Yi Lun, Rebecca Soska, Jessie Feng, Rohini Dhulipala, Michelle Frascella, Anadina Garcia, Lee J. Pellegrino, Su Xu, Nastry Brignol, Matthew J. Toth, Hung V. Do, David J. Lockhart, Brandon A. Wustman, Kenneth J. Valenzano. […] Miglustat TK parameters were estimated by the log-linear trapezoidal rule.

[2] = Clinical study: plasma miglustat PK; format: in vivo, human; conditions: for AUC0-∞/BW (geometric mean) / CL/F (arithmetic mean) / Cmax/BW (geometric mean) / βt1/2 (arithmetic mean) / AUC(0-t) / AUC(0-inf) / Cmax / Vd/F / Tmax: with 20 mg/kg ATB200; for AUC(0-t) / AUC(0-inf) / Cmax / Vd/F / Tmax: human, plasma, 20 mg/kg; for AUC(0-t): read-out: AUC0-t (geometric mean); for AUC(0-inf): read-out: AUC0-∞ (geometric mean); for Cmax: read-out: Cmax (geometric mean); for Vd/F: read-out: Vz/F (arithmetic mean); for Tmax: read-out: tmax (median)
Source text: The study will be conducted in 2 stages.
• Safety: review of AEs, including SAEs and IARs; review of concomitant medications and nondrug therapies; vital signs (HR, RR, BP, and temperature); weight; PE; ECG; clinical safety laboratory assessments (serum chemistry, hematology, and urinalysis); and urine pregnancy test • PD: urinary Hex4 and serum CPK • Immunological: blood samples for anti-recombinant acid α-glucosidase antibody titers (anti-recombinant acid α-glucosidase total and neutralizing antibody titers, and antibody cross-reactivity with alglucosidase alfa) and blood samples for measurement of pro-inflammatory cytokines and other biomarkers of immune system activation. If needed, IgE measurements will also be performed. • Serial 24-hour PK: During Period 4 (Visit 6, Day 43 and Visit 8, Day 71) and Period 5 (Visit 9, Day 85 and Visit 11, Day 113), blood sampling for plasma acid α-glucosidase activity levels, total acid α-glucosidase protein concentrations, and miglustat concentrations will be taken for all subjects.
In Tables 12-15 and FIGS. 24-26, the single dose (SD) measurements were taken after a single administration of miglustat and ATB200, and the multiple dose (MD) measurements were taken after the third biweekly administration of miglustat and ATB200.

[3] = Cambodian origin, po, 175 mg/kg, Day 85, 100 mg/kg ATB200 + 175 mg/kg miglustat
[4] = Cambodian origin, po, 175 mg/kg, Day 85, 175 mg/kg miglustat monotherapy
[5] = po, 25 mg/kg, Day 1, 50 mg/kg ATB200 + 25 mg/kg miglustat
[6] = po, 25 mg/kg, Day 85, 50 mg/kg ATB200 + 25 mg/kg miglustat
[7] = po, 175 mg/kg, Day 1, 100 mg/kg ATB200 + 175 mg/kg miglustat
[8] = po, 175 mg/kg, Day 1, 175 mg/kg miglustat monotherapy
[9] = po, 175 mg/kg, Day 85, 100 mg/kg ATB200 + 175 mg/kg miglustat
[10] = po, 175 mg/kg, Day 85, 175 mg/kg miglustat monotherapy
[11] = 130 mg miglustat, multiple dose
[12] = oral, 130 mg miglustat, multiple dose
[13] = oral, 130 mg miglustat, single dose
[14] = oral, 260 mg miglustat, single dose

CCCCN1C[C@H](O)[C@@H](O)[C@H](O)[C@H]1CO [miglustat, (2R,3R,4R,5S)-1-butyl-2-(hydroxymethyl)piperidine-3,4,5-triol]
percentage of unfolded ATB200 protein (ATB200): decrease the percentage of unfolded ATB200 protein
miglustat/ATB200 AUC ratio [1]: 0.01159
IC50, inhibition of acid α-glucosidase activity (acid α-glucosidase; pH of plasma (pH 7.0)): 0.17 µg/mL
IC50 (acid α-glucosidase; pH of the lysosomal compartment (pH 5.2)): 1720 nM
AUC(0-t) (Miglustat toxicokinetics; [3]): 216000 ng·h/mL
Cmax (Miglustat toxicokinetics; [3]): 22000 ng/mL
AUC(0-t) (Miglustat toxicokinetics; [4]): 204000 ng·h/mL
Cmax (Miglustat toxicokinetics; [4]): 14700 ng/mL
CLT/F (Miglustat toxicokinetics; Day 1, 50 mg/kg ATB200 + 25 mg/kg miglustat): 1.92 L/h
CLT/F (Miglustat toxicokinetics; Day 1, 100 mg/kg ATB200 + 175 mg/kg miglustat): 3.22 L/h
CLT/F (Miglustat toxicokinetics; Day 1, 175 mg/kg miglustat monotherapy): 3.67 L/h
CLT/F (Miglustat toxicokinetics; Day 85, 50 mg/kg ATB200 + 25 mg/kg miglustat): 1.99 L/h
CLT/F (Miglustat toxicokinetics; Day 85, 100 mg/kg ATB200 + 175 mg/kg miglustat): 3.62 L/h
CLT/F (Miglustat toxicokinetics; Day 85, 175 mg/kg miglustat monotherapy): 3.49 L/h
half-life (Miglustat toxicokinetics; both sexes, oral, males and females combined, Days 1 and 85, across groups, read-out: mean t1/2): 6.66 to 8.23 h
Tmax (Miglustat toxicokinetics; oral, postdose, across groups and days): 2 to 4 h
AUC(0-t) (Miglustat toxicokinetics; [5]): 47300 ng·h/mL
Cmax (Miglustat toxicokinetics; [5]): 7430 ng/mL
Tmax (Miglustat toxicokinetics; [5]): 2.06 h
Vd/F (Miglustat toxicokinetics; [5]): 20.5 L
half-life (Miglustat toxicokinetics; po, 25 mg/kg, Day 1, 50 mg/kg ATB200 + 25 mg/kg miglustat, read-out: t1/2 (converted)): 7.44 h
AUC(0-t) (Miglustat toxicokinetics; [6]): 49100 ng·h/mL
Cmax (Miglustat toxicokinetics; [6]): 7510 ng/mL
Tmax (Miglustat toxicokinetics; [6]): 2.88 h
Vd/F (Miglustat toxicokinetics; [6]): 23.3 L
half-life (Miglustat toxicokinetics; po, 25 mg/kg, Day 85, 50 mg/kg ATB200 + 25 mg/kg miglustat, read-out: t1/2 (converted)): 8.23 h
AUC(0-t) (Miglustat toxicokinetics; [7]): 182000 ng·h/mL
Cmax (Miglustat toxicokinetics; [7]): 20400 ng/mL
Tmax (Miglustat toxicokinetics; [7]): 2.69 h
Vd/F (Miglustat toxicokinetics; [7]): 32.3 L
half-life (Miglustat toxicokinetics; po, 175 mg/kg, Day 1, 100 mg/kg ATB200 + 175 mg/kg miglustat, read-out: t1/2 (converted)): 6.85 h
AUC(0-t) (Miglustat toxicokinetics; [8]): 173000 ng·h/mL
Cmax (Miglustat toxicokinetics; [8]): 16400 ng/mL
Vd/F (Miglustat toxicokinetics; [8]): 35.9 L
half-life (Miglustat toxicokinetics; po, 175 mg/kg, Day 1, 175 mg/kg miglustat monotherapy, read-out: t1/2 (converted)): 6.86 h
Tmax (Miglustat toxicokinetics; [9]): 3.56 h
Vd/F (Miglustat toxicokinetics; [9]): 39.1 L
half-life (Miglustat toxicokinetics; po, 175 mg/kg, Day 85, 100 mg/kg ATB200 + 175 mg/kg miglustat, read-out: t1/2 (converted)): 7.86 h
Tmax (Miglustat toxicokinetics; [10]): 4.13 h
Vd/F (Miglustat toxicokinetics; [10]): 33.8 L
half-life (Miglustat toxicokinetics; po, 175 mg/kg, Day 85, 175 mg/kg miglustat monotherapy, read-out: t1/2 (converted)): 6.66 h
dose proportionality of kinetics ([2]; 130 mg and 260 mg): dose-proportional kinetics
AUC0-∞/BW (geometric mean) [2, 11]: 142 ng·h/mL/kg
CL/F (arithmetic mean) [2, 11]: 10.8 L/h
Cmax/BW (geometric mean) [2, 11]: 16.3 ng/mL/kg
βt1/2 (arithmetic mean) [2, 11]: 5.6 h
AUC0-∞/BW (geometric mean) ([2]; 130 mg miglustat, single dose): 154 ng·h/mL/kg
CL/F (arithmetic mean) ([2]; 130 mg miglustat, single dose): 9.93 L/h
Cmax/BW (geometric mean) ([2]; 130 mg miglustat, single dose): 19.2 ng/mL/kg
βt1/2 (arithmetic mean) ([2]; 130 mg miglustat, single dose): 4.5 h
AUC0-∞/BW (geometric mean) ([2]; 260 mg miglustat, single dose): 325 ng·h/mL/kg
CL/F (arithmetic mean) ([2]; 260 mg miglustat, single dose): 9.51 L/h
Cmax/BW (geometric mean) ([2]; 260 mg miglustat, single dose): 41.5 ng/mL/kg
βt1/2 (arithmetic mean) ([2]; 260 mg miglustat, single dose): 5.5 h
AUC(0-t) [2, 12]: 11500 ng·h/mL
AUC(0-inf) [2, 12]: 12200 ng·h/mL
Cmax [2, 12]: 1390 ng/mL
Vd/F [2, 12]: 88.1 L
Tmax [2, 12]: 3 h
AUC(0-t) [2, 13]: 12600 ng·h/mL
AUC(0-inf) [2, 13]: 13200 ng·h/mL
Cmax [2, 13]: 1650 ng/mL
Vd/F [2, 13]: 65.4 L
Tmax [2, 13]: 2.75 h
AUC(0-t) [2, 14]: 26600 ng·h/mL
AUC(0-inf) [2, 14]: 28000 ng·h/mL
Cmax [2, 14]: 3550 ng/mL
Vd/F [2, 14]: 79.2 L
Tmax [2, 14]: 2.75 h
time of peak plasma concentrations into the ATB200 infusion ([2]; oral, 1 hour prior to ATB200 infusion): 2 h
